The values below are quoted from earlier work in patent publication US20140005116A1, “KELOID TREATMENT” (ADE THERAPEUTICS INC., priority 2010, published 2014).

For this data set the following is noted: heat sterilization and prolonged storage.

Structures are written as SMILES. Peptide text beside a SMILES is read from it.

As to `NCC(=O)N[C@@H](CCC(N)=O)C(=O)O` [Glycyl-glutamine] (H-Gly-Gln-OH), the “stability during sterilization and prolonged storage” value is recorded as “sufficiently stable”. With `C[C@H](N)C(=O)N[C@@H](CCC(N)=O)C(=O)O` [alanyl-glutamine, L-alanyl-L-glutamine] (H-Ala-Gln-OH), the “stability during sterilization and prolonged storage” value is “sufficiently stable”.
